31 molecules from patent US20250145633A1, “SUBSTITUTED FURANOPYRIMIDINE COMPOUNDS AS PDE1 INHIBITORS” (Dart NeuroScience, LLC, priority 2017, published 2025) can be followed below.

Structures are written as SMILES. Where only a bound is given, the exact number is not on record here.

One experiment deals with human PDE1B enzyme (Homo sapiens (Human), UniProt Q01064). Nature of the experiment: IMAP TR-FRET PDE1B enzymatic assay. It is filed as biochemical. As to conditions: negative log of half-maximal molar inhibitory concentration; 200 nM FAM-cAMP; values given as bins. Put shortly:
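Full-length GST-tagged human PDE1B (250 pg/well) in IMAP BSA buffer with 10 U/ml calmodulin and 2.5 mM CaCl2; compound pre-incubated 5 min at room temperature, then 200 nM (final) FAM-cAMP for 30 min. IMAP binding reagent/Tb added, 1 h; TR-FRET 520/490 ratio read. IC50 from sigmoidal dose-response fit.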
For orientation: TR-FRET usually uses a lanthanide donor and a delayed reading to cut background.
For `Cc1oc2ncnc(NC3(C)CC3)c2c1C(=O)N1CCc2c(O)cccc2C1` [Example 329, 2-{6-Methyl-4-[(1-methylcyclopropyl)amino]furo[2,3-d]pyrimidine-5-carbonyl}-1,2,3,4-tetrahydroisoquinolin-5-ol], the “PDE1b (pIC50)” value is above 8. Same read-out and setting: next, `Cc1oc2ncnc(NC3(C)CC3)c2c1C(=O)N1CCC(c2ncc(F)cc2Cl)CC1` [Example 334, 5-[4-(3-Chloro-5-fluoropyridin-2-yl)piperidine-1-carbonyl]-6-methyl-N-(1-methylcyclopropyl)furo[2,3-d]pyrimidin-4-amine]: above 8. On the same count and under the same terms, under `Cc1oc2ncnc(NC3(C)CC3)c2c1C(=O)N1CCC(c2ncc(Cl)cn2)C1` (stereo not shown) [Example 335, 5-[3-(5-Chloropyrimidin-2-yl)pyrrolidine-1-carbonyl]-6-methyl-N-(1-methylcyclopropyl)furo[2,3-d]pyrimidin-4-amine] stands above 8. Same read-out and setting: under `Cc1oc2ncnc(NC3(C)CC3)c2c1C(=O)N1CCc2ccc(O)cc2C1C` (stereo not shown) [Example 338, 1-Methyl-2-{6-methyl-4-[(1-methylcyclopropyl)amino]furo[2,3-d]pyrimidine-5-carbonyl}-1,2,3,4-tetrahydroisoquinolin-7-ol] stands above 8. With `Cc1oc2ncnc(NC3(C)CC3)c2c1C(=O)N1CCc2c(ncnc2NCC2CC2)C1` [Example 343, 5-{4-[(Cyclopropylmethyl)amino]-5H,6H,7H,8H-pyrido[3,4-d]pyrimidine-7-carbonyl}-6-methyl-N-(1-methylcyclopropyl)furo[2,3-d]pyrimidin-4-amine], the “PDE1b (pIC50)” value was above 8.

Take `Cc1oc2ncnc(NC3(C)CC3)c2c1C(=O)N1CCC(c2ncc(Cl)cn2)CC1` [Example 344, 5-[4-(5-Chloropyrimidin-2-yl)piperidine-1-carbonyl]-6-methyl-N-(1-methylcyclopropyl)furo[2,3-d]pyrimidin-4-amine]: the “PDE1b (pIC50)” value is listed as above 8. On the same count and under the same terms, under `COc1ccnc(C2CCN(C(=O)c3c(C)oc4ncnc(NC5(C)CC5)c34)CC2)n1` [Example 345, 5-[4-(4-Methoxypyrimidin-2-yl)piperidine-1-carbonyl]-6-methyl-N-(1-methylcyclopropyl)furo[2,3-d]pyrimidin-4-amine] stands above 8. Still for that read-out and setting: next, `Cc1oc2ncnc(NC3(C)CC3)c2c1C(=O)N1CCC(c2ccc(O)cc2)C1` (stereo not shown) [Example 346, 4-(1-{6-Methyl-4-[(1-methylcyclopropyl)amino]furo[2,3-d]pyrimidine-5-carbonyl}pyrrolidin-3-yl)phenol]: above 8. On the same count and under the same terms, under `Cc1oc2ncnc(NC3(C)CC3)c2c1C(=O)N1CCC(c2ccc(Cl)cn2)C1` (stereo not shown) [Example 348, 5-[3-(5-Chloropyridin-2-yl)pyrrolidine-1-carbonyl]-6-methyl-N-(1-methylcyclopropyl)furo[2,3-d]pyrimidin-4-amine] stands above 8. As for `Cc1oc2ncnc(NC3(C)CC3)c2c1C(=O)N1CCC(c2nc(Cl)ncc2F)CC1` [Example 351, 5-[4-(2-Chloro-5-fluoropyrimidin-4-yl)piperidine-1-carbonyl]-6-methyl-N-(1-methylcyclopropyl)furo[2,3-d]pyrimidin-4-amine], the “PDE1b (pIC50)” value is above 8. The same measure, in the same setting: next, `Cc1oc2ncnc(NC3(C)CC3)c2c1C(=O)N1CC(c2cccc(F)n2)C1` [Example 354, 5-[3-(6-Fluoropyridin-2-yl)azetidine-1-carbonyl]-6-methyl-N-(1-methylcyclopropyl)furo[2,3-d]pyrimidin-4-amine]: above 8. The same measure, in the same setting: under `Cc1oc2ncnc(NC3(C)CC3)c2c1C(=O)N1CCC(c2ncc(O)cn2)CC1` [Example 355, 2-(1-{6-Methyl-4-[(1-methylcyclopropyl)amino]furo[2,3-d]pyrimidine-5-carbonyl}piperidin-4-yl)pyrimidin-5-ol] stands above 8.

Staying with this experiment, now noted: negative log of half-maximal molar inhibitory concentration; 200 nM FAM-cAMP; values given as bins; read-out: PDE1b (pIC50) (converted).
Take `Cc1oc2ncnc(NC3(C)CC3)c2c1C(=O)NCc1cc(C(C)C)on1` [Example 324, 6-Methyl-4-[(1-methylcyclopropyl)amino]-N-{[5-(propan-2-yl)-1,2-oxazol-3-yl]methyl}furo[2,3-d]pyrimidine-5-carboxamide]: the IC50 is 10 to 100 nM.

Consider `Cc1oc2ncnc(NC3(C)CC3)c2c1C(=O)NCc1cc(-c2ccc(F)cc2)on1` [Example 325, N-{[5-(4-Fluorophenyl)-1,2-oxazol-3-yl]methyl}-6-methyl-4-[(1-methylcyclopropyl)amino]furo[2,3-d]pyrimidine-5-carboxamide], for which the IC50 is 10 to 100 nM. Same read-out and setting: next, `COc1ccc(-c2cc(CNC(=O)c3c(C)oc4ncnc(NC5(C)CC5)c34)no2)cc1` [Example 326, N-{[5-(4-Methoxyphenyl)-1,2-oxazol-3-yl]methyl}-6-methyl-4-[(1-methylcyclopropyl)amino]furo[2,3-d]pyrimidine-5-carboxamide]: 10 to 100 nM; `COc1cnc(N2CCN(C(=O)c3c(C)oc4ncnc(NC5(C)CC5)c34)CC2)nc1` [Example 327, 5-[4-(5-Methoxypyrimidin-2-yl)piperazine-1-carbonyl]-6-methyl-N-(1-methylcyclopropyl)furo[2,3-d]pyrimidin-4-amine]: 10 to 100 nM; `Cc1oc2ncnc(NC3(C)CC3)c2c1C(=O)NCc1cc(C(N)=O)on1` [Example 328, 3-[({6-Methyl-4-[(1-methylcyclopropyl)amino]furo[2,3-d]pyrimidin-5-yl}formamido)methyl]-1,2-oxazole-5-carboxamide]: 10 to 100 nM.

Consider `Cc1oc2ncnc(NC3(C)CC3)c2c1C(=O)N1CCc2cc(O)ccc2C1` [Example 330, 2-{6-Methyl-4-[(1-methylcyclopropyl)amino]furo[2,3-d]pyrimidine-5-carbonyl}-1,2,3,4-tetrahydroisoquinolin-6-ol], for which the IC50 is 10 to 100 nM.

As to `Cc1oc2ncnc(NC3(C)CC3)c2c1C(=O)N1CCc2cccc(O)c2C1` [Example 331, 2-{6-Methyl-4-[(1-methylcyclopropyl)amino]furo[2,3-d]pyrimidine-5-carbonyl}-1,2,3,4-tetrahydroisoquinolin-8-ol], the IC50 was 10 to 100 nM. On the same count and under the same terms, next, `Cc1oc2ncnc(NC3(C)CC3)c2c1C(=O)N1CCc2ccc(O)cc2C1` [Example 332, 2-{6-Methyl-4-[(1-methylcyclopropyl)amino]furo[2,3-d]pyrimidine-5-carbonyl}-1,2,3,4-tetrahydroisoquinolin-7-ol]: 10 to 100 nM; `Cc1oc2ncnc(NC3(C)CC3)c2c1C(=O)N1CCc2ncc(O)cc2C1` [Example 333, 6-{6-Methyl-4-[(1-methylcyclopropyl)amino]furo[2,3-d]pyrimidine-5-carbonyl}-5,6,7,8-tetrahydro-1,6-naphthyridin-3-ol]: 100 to 1000 nM; `COc1cc(CNC(=O)c2c(C)oc3ncnc(NC4(C)CC4)c23)ccc1F` [Example 336, N-[(4-Fluoro-3-methoxyphenyl)methyl]-6-methyl-4-[(1-methylcyclopropyl)amino]furo[2,3-d]pyrimidine-5-carboxamide]: 10 to 100 nM. The same measure, in the same setting: under `Cc1oc2ncnc(NC3(C)CC3)c2c1C(=O)N1CCc2c(cc[nH]c2=O)C1` [Example 337, 6-{6-Methyl-4-[(1-methylcyclopropyl)amino]furo[2,3-d]pyrimidine-5-carbonyl}-1,2,5,6,7,8-hexahydro-2,6-naphthyridin-1-one] stands 10 to 100 nM; under `Cc1oc2ncnc(NC3(C)CC3)c2c1C(=O)N1CCC(c2cncc(F)c2)C1` (stereo not shown) [Example 339, 5-[3-(5-Fluoropyridin-3-yl)pyrrolidine-1-carbonyl]-6-methyl-N-(1-methylcyclopropyl)furo[2,3-d]pyrimidin-4-amine], 10 to 100 nM. On the same count and under the same terms, under `Cc1oc2ncnc(NC3(C)CC3)c2c1C(=O)N1CCc2c(ncnc2NC2CC2)C1` [Example 342, 5-[4-(Cyclopropylamino)-5H,6H,7H,8H-pyrido[3,4-d]pyrimidine-7-carbonyl]-6-methyl-N-(1-methylcyclopropyl)furo[2,3-d]pyrimidin-4-amine] stands 10 to 100 nM; under `Cc1oc2ncnc(NC3(C)CC3)c2c1C(=O)N1CCC(O)(c2ccccc2)C1` (stereo not shown) [Example 347, 1-{6-Methyl-4-[(1-methylcyclopropyl)amino]furo[2,3-d]pyrimidine-5-carbonyl}-3-phenylpyrrolidin-3-ol], 10 to 100 nM; under `Cc1oc2ncnc(NC3(C)CC3)c2c1C(=O)NC1(c2ncccn2)CC1` [Example 349, 6-Methyl-4-[(1-methylcyclopropyl)amino]-N-[1-(pyrimidin-2-yl)cyclopropyl]furo[2,3-d]pyrimidine-5-carboxamide], 10 to 100 nM. For `Cc1cc(C(C)NC(=O)c2c(C)oc3ncnc(NC4(C)CC4)c23)no1` (stereo not shown) [Example 350, 6-Methyl-N-[1-(5-methyl-1,2-oxazol-3-yl)ethyl]-4-[(1-methylcyclopropyl)amino]furo[2,3-d]pyrimidine-5-carboxamide], the IC50 was 10 to 100 nM.

Take `Cc1oc2ncnc(NC3(C)CC3)c2c1C(=O)NCc1cc(-c2cnn(C)c2)on1` [Example 352, 6-Methyl-N-{[5-(1-methyl-1H-pyrazol-4-yl)-1,2-oxazol-3-yl]methyl}-4-[(1-methylcyclopropyl)amino]furo[2,3-d]pyrimidine-5-carboxamide]: the IC50 was 10 to 100 nM. The same measure, in the same setting: under `Cc1oc2ncnc(NC3(C)CC3)c2c1C(=O)NC1(CO)CCC1` [Example 353, N-[1-(Hydroxymethyl)cyclobutyl]-6-methyl-4-[(1-methylcyclopropyl)amino]furo[2,3-d]pyrimidine-5-carboxamide] stands 10 to 100 nM; under `Cc1oc2ncnc(NC3(C)CC3)c2c1C(=O)N1CCC(c2ncc(F)cn2)CC1` [Example 356, 5-[4-(5-Fluoropyrimidin-2-yl)piperidine-1-carbonyl]-6-methyl-N-(1-methylcyclopropyl)furo[2,3-d]pyrimidin-4-amine], 10 to 100 nM.
